How the values were obtained:
Assay in all cases: KiNativ profiling in H3255 cells
Type in all cases: cell-based, human
ARAF = tested on: T1, ARAF; conditions: 2.5 µM; Lys2; DLKSNNIFLHEGLTVK
T1 construct: purchased ActivX Biosciences (KiNativ)
Experimental: (§1) H3255 cells were plated with 6.5x10^6 per condition in fresh media in 15 cm plates and treated the 80% confluency for 2 hours with DMSO or 2.5 μM of ZNL-0056. To harvest cells, plates were washed 3 times with cold PBS, then collected by scraping into 4 mL of cold PBS containing protease and phosphatase inhibitors. Cells were pelleted by centrifugation at 1350 g at 4 ℃ for 5 minutes and immediately frozen in liquid nitrogen. The frozen samples were sent to ActivX Biosciences (La Jolla, CA) for the remainder of the KiNativ profiling experiment4. […]

CASK = tested on: T2, CASK; conditions: 2.5 µM; Lys1; ETGQQFAVKIVDVAK
T2 construct: purchased ActivX Biosciences (KiNativ)
Experimental: as §1

CDK6 = tested on: T3, CDK6; conditions: 2.5 µM; Lys2; DLKPQNILVTSSGQIK
T3 construct: purchased ActivX Biosciences (KiNativ)
Experimental: as §1

CaMK2g = tested on: T4, CaMK2g; conditions: 2.5 µM; Lys1; TSTQEYAAKIINTK
T4 construct: purchased ActivX Biosciences (KiNativ)
Experimental: as §1

FAK = tested on: T5, FAK; conditions: 2.5 µM
T5 construct: purchased ActivX Biosciences (KiNativ)
Experimental: as §1

FRAP = tested on: T6, FRAP; conditions: 2.5 µM; ATP; IQSIAPSLQVITSKQRPR
T6 construct: purchased ActivX Biosciences (KiNativ)
Experimental: as §1

FYN, SRC, YES = conditions: 2.5 µM; Activation Loop; QGAKFPIKWTAPEAALYGR
Experimental: as §1

GCN2 domain2 = tested on: T7, GCN2 domain2; conditions: 2.5 µM
T7 construct: GCN2 domain2; purchased ActivX Biosciences (KiNativ)
Experimental: as §1

IRAK1 = tested on: T8, IRAK1; conditions: 2.5 µM; Lys2; AIQFLHQDSPSLIHGDIKSSNVLLDER
T8 construct: purchased ActivX Biosciences (KiNativ)
Experimental: as §1

LATS1 = tested on: T9, LATS1; conditions: 2.5 µM
T9 construct: purchased ActivX Biosciences (KiNativ)
Experimental: as §1

MAP2K3 = tested on: T10, MAP2K3; conditions: 2.5 µM
T10 construct: purchased ActivX Biosciences (KiNativ)
Experimental: as §1

MAPKAPK2, MAPKAPK3 = conditions: 2.5 µM; Lys2; DVKPENLLYTSK
Experimental: as §1

MAPKAPK3 = tested on: T11, MAPKAPK3; conditions: 2.5 µM; ATP Loop; QVLGLGVNGKVLECFHR
T11 construct: purchased ActivX Biosciences (KiNativ)
Experimental: as §1

MARK2, MARK3 = conditions: 2.5 µM; Lys2; DLKAENLLLDADMNIK
Experimental: as §1

MELK = tested on: T12, MELK; conditions: 2.5 µM; Lys2; DLKPENLLFDEYHK
T12 construct: purchased ActivX Biosciences (KiNativ)
Experimental: as §1

NEK1 = tested on: T13, NEK1; conditions: 2.5 µM; Lys2; DIKSQNIFLTK
T13 construct: purchased ActivX Biosciences (KiNativ)
Experimental: as §1

NEK3 = tested on: T14, NEK3; conditions: 2.5 µM; Activation Loop; SKNIFLTQNGK
T14 construct: purchased ActivX Biosciences (KiNativ)
Experimental: as §1

PHKg2 = tested on: T15, PHKg2; conditions: 2.5 µM; Lys1; ATGHEFAVKIMEVTAER
T15 construct: purchased ActivX Biosciences (KiNativ)
Experimental: as §1

PI4KB = tested on: T16, PI4KB; conditions: 2.5 µM, ATP
T16 construct: purchased ActivX Biosciences (KiNativ)
Experimental: as §1

PIK3C2B = tested on: T17, PIK3C2B; conditions: 2.5 µM; ATP; VIFKCGDDLRQDMLTLQMIR
T17 construct: purchased ActivX Biosciences (KiNativ)
Experimental: as §1

PIK3C3 = tested on: T18, PIK3C3; conditions: 2.5 µM; ATP; TEDGGKYPVIFKHGDDLRQDQLILQIISLMDK
T18 construct: purchased ActivX Biosciences (KiNativ)
Experimental: as §1

PKCi = tested on: T19, PKCi; conditions: 2.5 µM
T19 construct: purchased ActivX Biosciences (KiNativ)
Experimental: as §1

RSK2 domain1 = tested on: T20, RSK2 domain1; conditions: 2.5 µM
T20 construct: RSK2 domain1; purchased ActivX Biosciences (KiNativ)
Experimental: as §1

SGK = tested on: T21, SGK; conditions: 2.5 µM
T21 construct: purchased ActivX Biosciences (KiNativ)
Experimental: as §1

SIK = tested on: T22, SIK; conditions: 2.5 µM; Lys1; TQVAIKIIDK
T22 construct: purchased ActivX Biosciences (KiNativ)
Experimental: as §1

SRPK1 = tested on: T23, SRPK1; conditions: 2.5 µM; Lys2; IIHTDIKPENILLSVNEQYIR
T23 construct: purchased ActivX Biosciences (KiNativ)
Experimental: as §1

TLK1 = tested on: T24, TLK1; conditions: 2.5 µM
T24 construct: purchased ActivX Biosciences (KiNativ)
Experimental: as §1

ULK3 = tested on: T25, ULK3; conditions: 2.5 µM; Lys1; EVVAIKCVAK
T25 construct: purchased ActivX Biosciences (KiNativ)
Experimental: as §1

Wnk1, Wnk2, Wnk3 = conditions: 2.5 µM; Lys2; DLKCDNIFITGPTGSVK
Experimental: as §1

eEF2K = tested on: T26, eEF2K; conditions: 2.5 µM; ATP; YIKYNSNSGFVR
T26 construct: purchased ActivX Biosciences (KiNativ)
Experimental: as §1

p70S6K = tested on: T27, p70S6K; conditions: 2.5 µM
T27 construct: purchased ActivX Biosciences (KiNativ)
Experimental: as §1

[1] = Lys1, CIGEGQFGDVHQGIYMSPENPALAVAIKTCK
[2] = Activation Loop, MCDFGISGYLVDSVAKTMDAGCKPYMAPER
[3] = Activation Loop, LTDFGLSKESIDHEKK
[4] = Lys2, YLNEIKPPIIHYDLKPGNILLVDGTACGEIK

`C=CC(=O)Nc1cc(Nc2nccc(-c3cn(C)c4ccccc34)n2)c(OC)cc1N(C)CCN(C)C` [Osimertinib, osimertinib, reference compound] was tested, and the Inhibition (ARAF) was -20.1%, the Inhibition (CASK) was 6.8% and the Inhibition (CDK6) was -8.5%. For the same compound, the Inhibition (CaMK2g) was -34.8%, the Inhibition (FAK; Activation Loop, YMEDSTYYKASK) was -25.6% and the Inhibition (FAK; [1]) was 16.5%. The Inhibition (FRAP) was -39.1%, the Inhibition (FYN, SRC, YES) was 7.8% and the Inhibition (GCN2 domain2; Lys1, LDGCCYAVKR) was 3.6%. The Inhibition (GCN2 domain2; Lys2, DLKPVNIFLDSDDHVK) was -25.4%, the Inhibition (IRAK1) was -50.3% and the Inhibition (LATS1; Lys1, ALYATKTLR) was -8.1%. It also gave an Inhibition (LATS1; Lys2, DIKPDNILIDR) of 5.0%, an Inhibition (MAP2K3; [2]) of -14.4% and an Inhibition (MAP2K3; Lys2, DVKPSNVLINK) of -14.5%. For the same compound, the Inhibition (MAPKAPK2, MAPKAPK3) was -28.4%, the Inhibition (MAPKAPK3) was -14.1% and the Inhibition (MARK2, MARK3) was -12.0%. It also gave an Inhibition (MELK) of -15.3%, an Inhibition (NEK1) of -34.8% and an Inhibition (NEK3) of -0.9%. It also gave an Inhibition (PHKg2) of -24.7%, an Inhibition (PI4KB; LLSVIVKCGDDLRQELLAFQVLK) of -20.5% and an Inhibition (PI4KB; VPHTQAVVLNSKDK) of 21.1%. For the same compound, the Inhibition (PIK3C2B) was 1.3%, the Inhibition (PIK3C3) was -7.5% and the Inhibition (PKCi; Lys1, IYAMKVVK) was 5.6%. The Inhibition (PKCi; Lys2, DLKLDNVLLDSEGHIK) was -27.3%, the Inhibition (RSK2 domain1; [3]) was -31.9% and the Inhibition (RSK2 domain1; Lys1, QLYAMKVLK) was 3.3%. For the same compound, the Inhibition (SGK; Lys1, HKAEEVFYAVKVLQK) was 13.2%, the Inhibition (SGK; Lys2, DLKPENILLDSQGHIVLTDFGLCK) was -15.1% and the Inhibition (SIK) was 48.0%. For the same compound, the Inhibition (SRPK1) was 2.2%, the Inhibition (TLK1; Lys1, YAAVKIHQLNK) was -53.3% and the Inhibition (TLK1; [4]) was 7.2%. The Inhibition (ULK3) was -21.6%, the Inhibition (Wnk1, Wnk2, Wnk3) was 11.9% and the Inhibition (eEF2K) was -9.7%. For the same compound, the Inhibition (p70S6K; Lys1, IFAMKVLK) was -2.7% and the Inhibition (p70S6K; Lys2, DLKPENIMLNHQGHVK) was -39.3%.
Compound `C=CC(=O)Nc1cc(C(=O)Nc2nc3cccc(C)c3n2[C@@H]2CCCCN(C(=O)C=C)C2)cs1` [ZNL-0056] has an Inhibition (ARAF) of 11.3%, an Inhibition (CASK) of -14.3% and an Inhibition (CDK6) of -27.5%. The Inhibition (CaMK2g) was -27.3%, the Inhibition (FAK; Activation Loop, YMEDSTYYKASK) was -16.1% and the Inhibition (FAK; [1]) was -40.2%. It also gave an Inhibition (FRAP) of -27.2%, an Inhibition (FYN, SRC, YES) of 1.6% and an Inhibition (GCN2 domain2; Lys1, LDGCCYAVKR) of 0.0617%. It also gave an Inhibition (GCN2 domain2; Lys2, DLKPVNIFLDSDDHVK) of 5.5%, an Inhibition (IRAK1) of 21.6% and an Inhibition (LATS1; Lys1, ALYATKTLR) of 3.8%. It also gave an Inhibition (LATS1; Lys2, DIKPDNILIDR) of 20.9%, an Inhibition (MAP2K3; [2]) of 11.1% and an Inhibition (MAP2K3; Lys2, DVKPSNVLINK) of -14.4%. For the same compound, the Inhibition (MAPKAPK2, MAPKAPK3) was -7.9%, the Inhibition (MAPKAPK3) was 4.1% and the Inhibition (MARK2, MARK3) was 9.0%. The Inhibition (MELK) was 23.0%, the Inhibition (NEK1) was -5.2% and the Inhibition (NEK3) was -5.3%. For the same compound, the Inhibition (PHKg2) was -4.2%, the Inhibition (PI4KB; LLSVIVKCGDDLRQELLAFQVLK) was -9.0% and the Inhibition (PI4KB; VPHTQAVVLNSKDK) was -25.9%. The Inhibition (PIK3C2B) was -9.6%, the Inhibition (PIK3C3) was 6.7% and the Inhibition (PKCi; Lys1, IYAMKVVK) was 2.3%. The Inhibition (PKCi; Lys2, DLKLDNVLLDSEGHIK) was 15.4%, the Inhibition (RSK2 domain1; [3]) was -17.5% and the Inhibition (RSK2 domain1; Lys1, QLYAMKVLK) was 0.2%. It also gave an Inhibition (SGK; Lys1, HKAEEVFYAVKVLQK) of 12.6%, an Inhibition (SGK; Lys2, DLKPENILLDSQGHIVLTDFGLCK) of 1.7% and an Inhibition (SIK) of 28.2%. It also gave an Inhibition (SRPK1) of 2.6%, an Inhibition (TLK1; Lys1, YAAVKIHQLNK) of 31.3% and an Inhibition (TLK1; [4]) of 13.1%. The Inhibition (ULK3) was -7.8%, the Inhibition (Wnk1, Wnk2, Wnk3) was -34.6% and the Inhibition (eEF2K) was -31.5%. For the same compound, the Inhibition (p70S6K; Lys1, IFAMKVLK) was 23.2% and the Inhibition (p70S6K; Lys2, DLKPENIMLNHQGHVK) was -10.8%.

Reference: paper PMC11212140, “Molecular Bidents with Two Electrophilic Warheads as a New Pharmacological Modality” (ACS Central Science, 2024)
